Measurements as given in patent US5532218A, “3'-aziridino-anthracycline derivatives” (Farmitalia Carlo Erba S.R.L., priority 1993, dated 1996).
Converted amounts (≈) assume the structure as drawn.

Tests used:
[1] = test system: P388 murine leukaemia resistant to doxorubicin (P388/DX); test: antitumor activity on P388/DX leukaemia in vivo; set-up: species or system murine (BD2F1 mice); details: for T/C (median survival time of treated mice/median survival time of controls × 100): P388/DX 10^5 cell/mouse i.v. in BD2F1 mice, compound i.v. one day after tumor transplantation, at optimal dose; for T/C (median survival time of treated mice/median survival time of controls × 100) / O.D. (Optimal Dose): in Tween 80 (10%); for O.D. (Optimal Dose): P388/DX in BD2F1 mice, i.v. one day after tumor transplantation; for in vivo activity compared with doxorubicin, in words: P388 murine leukaemia resistant to doxorubicin, BD2F1 mice
Excerpt: The compounds were suspended in Tween 80 (10%) and injected i.v. one day
after tumor transplantation.
^(2) Median survival time of treated mice/Median survival time of

[2] = test system: LoVo/DX (colon adenocarcinoma resistant to doxorubicin); test: cells; details: for resistance index, in words: LoVo/DX vs LoVo; for IC50 (concentration inhibiting 50% colony formation), LoVo/DX / R.I. = Resistance Index = (IC50 LoVo/DX)/(IC50 LoVo): colony assay, 4 h treatment; for cytotoxic activity against LoVo/DX, in words: both cell lines; for R.I. = Resistance Index = (IC50 LoVo/DX)/(IC50 LoVo): ratio LoVo/DX to LoVo
Excerpt: (§1) The citotoxic activity is reported as IC50, the concentration inhibiting 50% of colony formation, calculated on concentration response curves. Resistance index R.I. is the ratio between the IC50 on resistant cells and the IC50 on sensitive cells.

[3] = test system: LoVo (colon adenocarcinoma); test: cells; details: for IC50 (concentration inhibiting 50% colony formation), LoVo: colony assay, 4 h treatment; for cytotoxic activity against LoVo, in words: both cell lines
Excerpt: as §1

Compound | T/C (median survival time of treated mice/median survival time of controls × 100) [1] [%] | O.D. (Optimal Dose) [1] [mg/kg] | in vivo activity compared with doxorubicin, in words [1] | resistance index, in words [2] | IC50 (concentration inhibiting 50% colony formation), LoVo/DX ([2]; LoVo/DX) [µg/mL] | cytotoxic activity against LoVo/DX, in words [2] | R.I. = Resistance Index = (IC50 LoVo/DX)/(IC50 LoVo) [2] | IC50 (concentration inhibiting 50% colony formation), LoVo ([3]; LoVo) [µg/mL] | cytotoxic activity against LoVo, in words [3] | IC50 ([2]; Homo sapiens, LoVo/DX, 4 h, read-out: IC50 (concentration inhibiting 50% colony formation), LoVo/DX) [µg/mL] | IC50 ([3]; Homo sapiens, LoVo, 4 h, read-out: IC50 (concentration inhibiting 50% colony formation), LoVo) [µg/mL]
3'-deamino-3'-[1-aziridinyl]-4'-O-methansulfonyl doxorubicin [Compound 2c] | 195 | 1.8 | strikingly higher activity than doxorubicin | low resistance index | 0.024 | high activity | 9.2 | 0.0027 | high activity |  | 
3'-deamino-3'-[1-aziridinyl]-4'-O-methansulfonyl daunorubicin [Compound 1a] | 190 | 2.2 | strikingly higher activity than doxorubicin | low resistance index | 0.022 | high activity | 1.7 | 0.013 | high activity |  | 
COc1cccc2c1C(=O)c1c(O)c3c(c(O)c1C2=O)C[C@@](O)(C(=O)CO)C[C@@H]3O[C@H]1C[C@H](N)[C@H](O)[C@H](C)O1 [doxorubicin, reference compound] |  | 16.9 |  |  |  |  |  |  |  |  | 
3'-deamino-3'-[1-aziridinyl]-4'-O-methansulfonyl-14-nicotinate-doxorubicin [Compound 2a] | 200 | 2.5 | strikingly higher activity than doxorubicin | low resistance index | 0.04 |  | 2.9 | 0.014 |  |  | 
CC(=O)[C@]1(O)Cc2c(O)c3c(c(O)c2[C@@H](O[C@H]2C[C@H](N4CC4)[C@H](OS(C)(=O)=O)[C@H](C)O2)C1)C(=O)c1ccccc1C3=O [Compound 1b, 4-demethoxy-3'-deamino-3'-[1-aziridinyl]-4'-O-methansulfonyl daunorubicin] | 240 | 3.8 | strikingly higher activity than doxorubicin | low resistance index |  | high activity | 0.9 |  | high activity | 0.026 (≈ 0.0432 µM) | 0.027 (≈ 0.0449 µM)
